From ChEMBL document CHEMBL4627370, “Discovery of δ opioid receptor full agonists lacking a basic nitrogen atom and their antidepressant-like effects” (Bioorg Med Chem Lett, 2020)
Active and inactive are the calls of the source. No cut-off for these calls is given here.

Assays:
Mus musculus [1] = experiment: Antidepressant activity in sc dosed mouse assessed as decrease in total immobility count by forced swim test; type: functional, organism-based
Mus musculus [2] = experiment: Antidepressant activity in sc dosed mouse assessed as increase in total swimming count by forced swim test; type: functional, organism-based
Mus musculus [3] = experiment: Antidepressant activity in mouse at 10 mg/kg, sc by forced swim tes; type: functional, organism-based
Mus musculus [4] = experiment: Antidepressant activity in sc dosed mouse assessed as increase in climbing count by forced swim test; type: functional, organism-based
[5] = molecular target: T1, Delta-type opioid receptor (Homo sapiens, UniProt P41143); experiment: Agonist activity at human delta opioid receptor expressed in CHO cell membranes by [35S]GTPgammaS binding assay; type: functional
T1 sequence (P41143 whole entry): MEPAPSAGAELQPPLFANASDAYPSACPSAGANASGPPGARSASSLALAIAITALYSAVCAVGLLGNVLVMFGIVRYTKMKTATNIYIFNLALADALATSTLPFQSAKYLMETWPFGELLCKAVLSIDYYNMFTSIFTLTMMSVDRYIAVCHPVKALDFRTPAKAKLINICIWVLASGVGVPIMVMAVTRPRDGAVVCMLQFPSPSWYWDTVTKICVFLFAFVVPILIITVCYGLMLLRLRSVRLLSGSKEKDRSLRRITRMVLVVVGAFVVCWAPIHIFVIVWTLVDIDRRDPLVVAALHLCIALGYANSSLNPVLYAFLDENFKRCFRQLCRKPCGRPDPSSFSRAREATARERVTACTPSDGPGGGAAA

[6] = molecular target: T1, Delta-type opioid receptor; experiment: Agonist activity at human delta opioid receptor expressed in CHO cell membranes by [35S]GTPgammaS binding assay relative to control; type: functional
Mus musculus [7] = experiment: Antidepressant activity in mouse at 3 mg/kg, sc by forced swim test; type: functional, organism-based
[8] = molecular target: T1, Delta-type opioid receptor; experiment: Displacement of [3H]DPDPE from human delta opioid receptor expressed in CHO cells; type: cell-based
Homo sapiens [9] = species: Homo sapiens; experiment: Selectivity ratio for Ki for displacement of [3H]DAMGO from human mu opioid receptor expressed in CHO cells to Ki for displacement of [3H]DPDPE from human DOR expressed in CHO cells; type: cell-based
Mu-type opioid receptor = Mu-type opioid receptor (Homo sapiens, UniProt P35372); experiment: Displacement of [3H]DAMGO from human mu opioid receptor expressed in CHO cells; type: cell-based
Mu-type opioid receptor, sequence (P35372 whole entry): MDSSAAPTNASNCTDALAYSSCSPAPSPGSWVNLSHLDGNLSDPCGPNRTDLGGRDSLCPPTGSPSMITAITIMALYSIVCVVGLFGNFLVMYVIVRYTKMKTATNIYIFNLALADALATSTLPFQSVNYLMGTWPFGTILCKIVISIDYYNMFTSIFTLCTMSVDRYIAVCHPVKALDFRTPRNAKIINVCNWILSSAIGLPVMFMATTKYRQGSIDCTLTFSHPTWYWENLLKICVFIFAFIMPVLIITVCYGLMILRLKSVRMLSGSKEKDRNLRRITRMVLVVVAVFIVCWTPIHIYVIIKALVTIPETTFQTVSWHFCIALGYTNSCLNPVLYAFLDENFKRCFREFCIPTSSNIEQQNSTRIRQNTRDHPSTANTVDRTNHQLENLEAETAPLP

[10] = molecular target: Kappa-type opioid receptor (Homo sapiens, UniProt P41145); experiment: Displacement of [3H]U69593 from human kappa opioid receptor expressed in CHO cells; type: cell-based
Kappa-type opioid receptor, sequence (P41145 whole entry): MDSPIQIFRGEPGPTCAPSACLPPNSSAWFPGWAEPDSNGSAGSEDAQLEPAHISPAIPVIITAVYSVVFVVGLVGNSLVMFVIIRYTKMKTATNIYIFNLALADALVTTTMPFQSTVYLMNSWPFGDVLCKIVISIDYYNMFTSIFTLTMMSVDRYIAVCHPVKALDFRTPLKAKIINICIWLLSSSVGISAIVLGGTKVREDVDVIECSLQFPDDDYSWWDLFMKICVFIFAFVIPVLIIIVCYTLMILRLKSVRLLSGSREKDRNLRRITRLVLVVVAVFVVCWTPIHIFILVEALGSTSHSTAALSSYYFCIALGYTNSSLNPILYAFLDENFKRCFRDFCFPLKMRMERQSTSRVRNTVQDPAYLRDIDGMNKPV

Homo sapiens [11] = species: Homo sapiens; experiment: Selectivity ratio for Ki for displacement of [3H]U69593 from human kappa opioid receptor expressed in CHO cells to Ki for displacement of [3H]DPDPE from human DOR expressed in CHO cells; type: cell-based
[12] = molecular target: T1, Delta-type opioid receptor; experiment: Inverse agonist activity at human delta opioid receptor expressed in CHO cell membranes by [35S]GTPgammaS binding assay; type: functional

Row | SMILES | Activity (Mus musculus [1]) | Activity (Mus musculus [2]) | Activity (Mus musculus [3]) | Activity (Mus musculus [4]) | EC50 [5] [nM] | Emax [6] [%] | Activity (Mus musculus [7]) | Ki [8] [nM] | Ratio Ki (Homo sapiens [9]) | Ki (Mu-type opioid receptor) [nM] | Ki [10] [nM] | Ratio Ki (Homo sapiens [11]) | EC50 [12] [nM]
1 | CN1CC[C@]23Cc4nc5ccccc5cc4C[C@@]2(O)[C@H]1Cc1ccc(O)cc13 | Dose-dependent effect | Dose-dependent effect | Active | Dose-dependent effect | – | – | – | – | – | – | – | – | –
2 | O=C(Cc1ccccc1)N1CC[C@]23Cc4nc5ccccc5cc4C[C@@]2(O)[C@H]1Cc1ccc(O)cc13 | Dose-dependent effect | Dose-dependent effect | – | Dose-dependent effect | 14.4 | 125 | Active | 26 | – | – | – | – | –
3 | O=C(CCc1ccccc1)N1CC[C@]23Cc4nc5ccccc5cc4C[C@@]2(O)[C@H]1Cc1ccc(O)cc13 | – | – | – | – | 10.4 | 123 | – | 4.17 | 430 | 1790 | – | – | –
4 | O=C(Cc1ccccc1)N1CC[C@]23c4c5ccc(O)c4O[C@H]2c2[nH]c4ccccc4c2C[C@@]3(O)[C@H]1C5 | – | – | – | – | 132 | 97.5 | – | 41.5 | 209 | 8670 | 5990 | 144 | –
5 | COC1=CC=C2C[C@H]3N(C(=O)C4CC4)CC[C@]45C2C1O[C@H]4c1[nH]c2ccccc2c1C[C@@]35O (stereo partly specified) | – | – | – | – | – | – | – | – | – | – | – | – | 322
6 | O=C(CCc1ccccc1)N1CC[C@]23c4c5ccc(O)c4O[C@H]2c2[nH]c4ccccc4c2C[C@@]3(O)[C@H]1C5 | – | – | – | – | 127 | 88.5 | – | 89 | 39.2 | 3480 | 2150 | 24.2 | –
